From patent US5962533A, “Hydroxy polyamines” (priority 1996, dated 1999)
“And” between values parts separate entries of the source, which are not always exact repeats. Equal values may be shown once. Read-outs that look alike come from different tables or passages of the source. Blank lines part the entries; values can stand above or below the compound they belong to.

What was measured:
[1] = tested on: polyamine transport apparatus; test: Competition with radiolabeled spermidine for uptake into L1210 cells (Ki); assay type: cell-based, Murine
Procedure: The same cell line was utilized to evaluate the tetraamines's competition with radiolabeled spermidine for the polyamine uptake apparatus (Ki). The Ki values here are the concentrations of drugs required to inhibit the uptake of radioactive spermidine transport by 50% (Table 1).
Uptake Determinations. The polyamine derivatives were studied for their ability to compete with [^3 H]SPD or [^14 C]SPD for uptake into L1210 leukemia cells in vitro. Cell suspensions were incubated in 1 ml of RPMI-1640 containing 1, 2, 4, 6, 8 and 10 μm radiolabeled SPD alone or with the additional presence of 10, 25 and 50 μm polyamine analogue for 20 minutes at 37° C. At the end of the incubation period, tubes were centrifuged at 900 g for 5 minutes at 0-4° C. The pellet was washed twice with 5 ml of cold RPMI-1640 containing 1 mm SPD, dissolved in 200 μl of 1N NaOH at 60° C. for 1 hour, and neutralized with 1N HCl. The material was transferred to a vial for scintillation counting.

[2] = tested on: castor oil-induced diarrhea; test: Castor oil-induced diarrhea; assay type: in vivo, rat; details: rat; for stool output / diarrhea during 6 hour assay (FIG. 8): subcutaneous injection 30 minutes before castor oil 5 ml/kg
From the text: Castor Oil-Induced Diarrhea. Male Sprague-Dawley rats (350-400 g) were fasted overnight in hanging wire cages and allowed free access to water.

[3] = Acute toxicity, single intraperitoneal injection; details: mouse, in vivo, ip
[4] = Protonation state at physiological pH assumed from measured pKa values; assay type: physicochemical; details: physiological pH of 7.2
Procedure: All of the non-aromatic, non-trifluoroethylated tetraamines are largely in the form of the tetracation at the physiological pH of 7.2. The spermine analogues (13-16 and 34) and the homospermine analogues and homologues (18-26, 29 and 31-33) should be 85 and 97%, respectively, in the form of the tetracations. The norspermine analogues (9-12) should be at least 74% in the form of the tetracations. […] Thus, the calculation of atomic charges and conformational search of these analogues were carried out based on the anticipated protonated structures.

L1210 cells [5] = test: L1210 growth inhibition, IC50 determinations; assay type: cell-based, Murine; details: L1210 cells
Procedure: IC50 Determinations. Cells were grown in 25 cm^2 tissue culture flasks in a total volume of 10 ml. Cultures were treated while in logarithmic growth (0.5-1.0×10^5 cells/ml) with the polyamine derivative diluted in sterile water and filtered through a 0.2 μm filter.
After the indicated time periods, cells were removed from the incubator for counting. Cell number was determined by electronic particle counting (Model ZF coulter counter, Coulter Electronics, Hialeah, Fla.) and confirmed periodically with hemocytometer measurements.
The percentage of control growth was determined as follows: [formula]

L1210 cells [6] = test: Polyamine pool analysis in analogue-treated L1210 cells (HPLC); assay type: cell-based, Murine
Procedure: Polyamine Pool Analysis. While in logarithmic growth, cells were treated with the polyamine derivatives. […] Each supernatant was frozen at -20° C. until analysis by HPLC.

NMDA receptor = test: NMDA assay: specific [3H]MK-801 binding to washed rat cerebral cortical membranes; details: 100 μm L-glutamate, 100 μm glycine, 2 nm [3H]MK-801
From the text: FIG. 4 depicts the effects of (HO)2 DEHSPM and DEHSPM on the NMDA receptor (MK-801 binding). Each data point represents the mean ±s.d. of three experiments. Each experiment was, in turn, performed in triplicate. "100% activity" is defined as the amount of specific MK-801 binding to washed rat cerebral cortical membranes in the presence of saturating concentrations of coagonists (100 μm L-glutamate, 100 μm glycine) and 2 nm [^3 H]MK-801.
NMDA Assay. The procedure for measuring specific binding of [^3 H]MK-801 to the N-methyl-D-aspartate receptor complex was a modification of the method of Ransom and Stec [J. Neurochem., Vol. 51, pages 830-836 (1988)]. Cerebral cortices from young male Sprague-Dawley rats (200-300 g) were homogenized with 10 volumes ice-cold 0.32M sucrose using a motor-driven glass/Teflon homogenizer. The homogenate was centrifuged at 1,000 g for 10 minutes and the pellet was discarded. The supernatant was then centrifuged at 18,000 g for 20 minutes. The 18,000 g pellet was then resuspended in 10 volumes buffer A (5 mm Tris-HCl, pH 7.7) at 4° C., homogenized using high-intensity ultrasound and centrifuged at 8,000 for 20 minutes. The supernatant and upper buffy coat of the pellet were combined and centrifuged at 50,000 g for 20 minutes. The pellet was then resuspended in 10 volumes buffer A and homogenized using high-intensity ultrasound. These resuspended membranes were then centrifuged at 50,000 g, discarding the supernatant. The membranes were washed in this manner an additional three times and stored as a frozen suspension at -80° C. for at least 18 hours, but no longer than 2 weeks before use.
For binding experiments, frozen membranes were thawed, pelleted at 50,000 g for 20 minutes and washed as described above, except that 20 volumes of buffer A were used for resuspension, for a total of four times. The final pellet was resuspended in buffer B (5 mm Tris-HCl, pH 7.5) at 23° C. The binding assay mixture was 1.00 ml buffer B containing 200-300 μg membrane protein, 100 μm L-glutamate, 100 μm glycine, 2 nm [^3 H]MK-801 and tetraamine at the following concentrations: 0 ("100%+L-glu,+gly-Control") and 0.05, 0.1, 0.5, 1, 5, 10, 50, 100, 500 and 1,000 μm. Non-specific binding was determined using 100 μm MK-801.
Binding assays were performed in triplicate at 23° C. for one hour and were terminated by filtration through Whatman GF/B glass fiber filters followed by three 4.0 ml rinses of ice-cold buffer B using a Brandel M-48 Cell Harvester.

[7] = Metabolism of (HO)2 DEHSPM v. DEHSPM in mouse liver and kidney (HPLC); assay type: in vivo
Procedure: Metabolism of (HO)2 DEHSPM v. DEHSPM in Mouse Liver and Kidney. […] In ease case, animals were sacrificed for HPLC analysis one day after the final dose.
HPLC Analysis of Polyamines. Various tissues including the liver and kidney were prepared for HPLC analysis of polyamine content. In order to facilitate their handling, the organs were submerged in liquid nitrogen. Once frozen and weighed, the tissues were homogenized (Tissuemizer, Tekmar, Cincinnati, Ohio) in 1.2N perchloric acid (containing 1,7-diaminoheptane internal standard) in a 1:20 (w/v) ratio. The tissue homogenates were then freeze-thawed three times and stored in a -70° C. freezer until HPLC analysis was performed.
Each chromatographic assay included calibration standards which were treated in the same manner as the samples. […] The concentration of each polyamine was calculated from the peak area by calibration curves obtained by non-weighted least squares linear regression. Peak area and linear regression calculations were performed on a Macintosh Centris 650 with Rainin Dynamax HPLC Method Manager software (Rainin Instrument Co., Ridgefield, N.J.).

[8] = Chronic toxicity, one dose per day for five days; assay type: in vivo; details: mouse, in vivo
Procedure: In the chronic toxicity regimen, mice were administered the polyamine analogue as one dose per day for five days. Appetite, weight and overall physical appearance were recorded at the time of each injection. After the treatment regimen had been completed, the animals were observed an additional 10 days. The chronic toxicity dosing regimen was set up so that at least one test group was presented with a high fraction of lethalities.

[9] = mice, three weeks after a seven day schedule; cited from earlier work
[10] = tetraamine analogues, L1210 cells, radiolabeled spermidine uptake, read-out: Ki, actual (Table 1)
[11] = triamine analogues, bioassay results not in model data set, read-out: Ki, Actual (Table 2)
[12] = 24 h after regimen, normalized for 30 g mouse
[13] = liver and kidneys, 24 h after regimen, 30 g mouse
[14] = mouse, one day after subchronic equimolar i.p. regimen

Compound: CC(C)NCCCNCCCNCCCNC(C)C [DIPNSPM]
Ki [1, 10]: 40 µM

Compound: CCNCCCNCCCNCCCNCC [DENSPM, Diethylnorspermine]
Ki [1, 10]: 17 µM
anti-diarrheal activity ([2]; 40 mg/kg): far less active than the homospermine compounds
stool output / diarrhea during 6 hour assay (FIG. 8) [2]: became diarrheal during the 6 hour assay
LD50 [3]: 325 mg/kg

Compound: CCNCCCCNCCCCNCCCCN [MEHSPM, N^1 -ethylhomospermine]
Ki [1, 10]: 1.1 µM

Compound: CCNCCCNCCCNCC [DENSPD]
Ki [1, 11]: 200 µM

Compound: CCNCCCCNCCCNCC [DESPD]
Ki [1, 11]: 19.3 µM

Compound: NCCCCNCCCCN [HSPD]
Ki [1, 11]: 3.5 µM

Compound: CCNCCCCNCCCNCCCCNCC [DE(4,3,4)]
Ki [1, 10]: 4 µM

Compound: CCNCCCNCCCCNCCCNCC [DESPM]
Ki [1, 10]: 1.6 µM

Compound: c1cc(CNCCCCNCc2ccncc2)ccn1 [PYR(4,4,4)]
Ki [1, 10]: > 500 µM
protonation state [4]: almost exclusively in the form of the internal dication

Compound: NCCCCNCCCCNCCCCN [HSPM, homospermine]
stool output / diarrhea during 6 hour assay (FIG. 8) [2]: became diarrheal during the 6 hour assay

Compound: C(CCNCC1CCNCC1)CNCC1CCNCC1 [PIP(4,4,4)]
Ki [1, 10]: 4.9 µM

Compound: CCNCCCCNCCCCNCCCNCC [DE(3,4,4)]
Ki [1, 10]: 8 µM

Compound: C(CCNC1CCNCC1)CNC1CCNCC1 [PIP(3,4,3)]
Ki [1, 10]: 60.5 µM

Compound: CC(C)(C)NCCCCNCCCCNCCCCNC(C)(C)C [DTBHSPM]
Ki [1, 10]: 56 µM

Compound: C(CCNCCC1CCNCC1)CNCCC1CCNCC1 [PIP(5,4,5)]
Ki [1, 10]: 18.1 µM

Compound: FC(F)(F)CNCCCNCCCCNCCCNCC(F)(F)F [FDESPM, N^1,N^12-bis(2,2,2-trifluoroethyl)spermine]
Ki [1, 10]: 285 µM
protonation state [4]: almost exclusively in the form of the internal dication

Compound: CCNCCCCNCCCCCNCCCCNCC [DE(4,5,4)]
Ki [1, 10]: 6 µM

Compound: CCCNCCCNCCCNCCCNCCC [DPNSPM]
anti-diarrheal activity ([2]; 15 mg/kg): far less active than the homospermine compounds
stool output / diarrhea during 6 hour assay (FIG. 8) [2]: became diarrheal during the 6 hour assay

Compound: CCCNCCCNCCCCNCCCNCCC [DPSPM]
Ki [1, 10]: 2.3 µM

Compound: CC(C)NCCCCNCCCCNCCCCNC(C)C [DIPHSPM]
Ki [1, 10]: 8.1 µM

Compound: CNCCCCNCCCCNCCCCNC [DMHSPM]
Ki [1, 10]: 0.97 µM

Compound: CCNCCCCNCCCCNCC [DEHSPD]
Ki [1, 11]: 115 µM

Compound: CNCCCNCCCNCCCNC [DMNSPM]
Ki [1, 10]: 5.6 µM

protonation state [4]: terminal dication
Compound: c1cc(NCCCNc2ccncc2)ccn1 [PYR(3,3,3)]
Ki [1, 10]: > 500 µM

Compound: CCNCCCNCCCNCCCN [MENSPM, N^1 -ethylnorspermine]
Ki [1, 10]: 7.7 µM

Compound: CNCCCNCCCCNCCCNC [DMSPM]
Ki [1, 10]: 1.1 µM

Compound: CCNCCCCNCCCCNCCCCNC(C)(C)C [ETBHSPM]
Ki [1, 10]: 3 µM

Compound: CCNCCCCNCCCCNCCCCNCC [DEHSPM, Diethylhomospermine]
Ki ([1]; L1210 cells, estimated from Lineweaver-Burke plots, read-out: Ki, [3H]-spermidine transport): 1.4 µM
Ki [1, 10]: 1.4 µM
IC50 (L1210 cells [5]; 96 h, read-out: IC50 96 h): 0.05 to 0.09 µM
IC50 (L1210 cells [5]; Mus musculus, L1210, 48 h, 48 h, read-out: IC50 48 h): 0.2 µM
IC50 (L1210 cells [5]; Mus musculus, L1210, 96 h, 96 h, read-out: IC50 96 h): 0.07 µM
SPM level relative to untreated controls (L1210 cells [6]; L1210 cells, 10 μm analogue, 48 hours, control = 100%): 60% and 61%
N-deethylation by L1210 cells (L1210 cells [6]; in vitro conditions): do not N-deethylate
concentration showing agonist activity on MK-801 binding (NMDA receptor): 0.5-1.0 μm
concentrations of maximal antagonism of MK-801 binding (NMDA receptor): ≥ 50 μm
concentrations showing marked antagonist activity on MK-801 binding (NMDA receptor): above 5 μm
% of total dose present as total drug + metabolite, Kidneys [7, 12]: 9.67%
% of total dose present as total drug + metabolite, Liver [7, 12]: 24.15%
% of total dose present as unmetabolized parent drug, Kidneys [7, 12]: 3.14 ± 1.37%
% of total dose present as unmetabolized parent drug, Liver [7, 12]: 1.84 ± 0.53%
Amount of total dose present as dideethylated metabolite HSPM/(HO)2 HSPM, Kidneys [7, 12]: 0.408 µmol
Amount of total dose present as dideethylated metabolite HSPM/(HO)2 HSPM, Liver [7, 12]: 1.394 µmol
Amount of total dose present as total drug + metabolite, Kidneys [7, 12]: 0.604 µmol
Amount of total dose present as total drug + metabolite, Liver [7, 12]: 1.509 µmol
Amount of total dose present as unmetabolized parent drug, Kidneys [7, 12]: 0.196 µmol
Amount of total dose present as unmetabolized parent drug, Liver [7, 12]: 0.115 µmol
% of total dose present as total drug + metabolite, Both Tissues [7, 13]: 33.8% and 33.82%
% of total dose present as unmetabolized parent drug, Both Tissues [7, 13]: 5.0% and 4.98%
Amount of total dose present as dideethylated metabolite HSPM/(HO)2 HSPM, Both Tissues [7, 13]: 1.80 µmol and 1.802 µmol
Amount of total dose present as total drug + metabolite, Both Tissues [7, 13]: 2.11 µmol and 2.113 µmol
Amount of total dose present as unmetabolized parent drug, Both Tissues [7, 13]: 0.313 µmol and 0.311 µmol
level of unchanged drug in kidney [7, 14]: 409±178 nmol/g wet weight
level of unchanged drug in liver [7, 14]: 43.9±12.6 nmol/g wet weight
greater chronic toxicity of DEHSPM v. DENSPM [8]: 4-5 fold
LD50 ([8]; read-out: chronic LD50): 38 mg/kg
prevention of castor oil-induced diarrhea ([2]; 5 mg/kg subcutaneous, six hour assay): effectively prevented the onset of diarrheal stooling
stool output / diarrhea during 6 hour assay (FIG. 8) [2]: virtually no stool output
drug administered remaining in liver and kidney as drug or metabolites [9]: 35%
share of drug remaining in the animal that is in the form of HSPM [9]: 90%
LD50 [3]: 325 mg/kg

Compound: CCNCCCNCCCCN [N^1 -MESPD]
Ki [1, 11]: 8.6 µM

Compound: CCNCCCCNCCCN [N^8 -MESPD]
Ki [1, 11]: 7 µM

Compound: C(CCNCCCCNC12CC3CC(CC(C3)C1)C2)CNCCCCNC12CC3CC(CC(C3)C1)C2 [BAHSPM]
Ki [1, 10]: 2 µM

Compound: NCCCNCCCN [NSPD, norspermidine]
Ki [1, 11]: 8.4 µM
